This assay deals with T1, PD-1-Ig binding to PD-L1-TVMV-His (PD-L1-His) (Homo sapiens, UniProt Q9NZQ7).
T1 construct: hPDL1(19-239)-TVMV-His; made in house; host or cells: HEK293T cells
The assay can be described thus: PD-1/PD-L1 Homogenous Time-Resolved Fluorescence (HTRF) binding assay. The settings on record: PD-1-Ig (20 nM) / PD-L1-His (10 nM). The gist of the method:
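HTRF competition: compound pre-incubated 15 min with PD-L1-His (10 nM final), then PD-1-Ig (20 nM final) added for 15 min in dPBS, 0.1% BSA, 0.05% Tween-20. Detection with Eu-cryptate anti-Ig (1 nM) and APC anti-His (20 nM) antibodies.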

Positions of bridges follow the written chain, without caps; N, C: chain ends. Non-standard residues stand in square brackets, D forms with d. Residues, ends and D or L forms follow the SMILES beside them. Trp(1-CH2COOH) = N[C@@H](Cc1cn(CC(=O)O)c2ccccc12)C(=O)O; Phe(4-Cl) = N[C@@H](Cc1ccc(Cl)cc1)C(=O)O; Phe(4-F) = N[C@@H](Cc1ccc(F)cc1)C(=O)O; Phe(4-Me) = Cc1ccc(C[C@H](N)C(=O)O)cc1; Hyp = O=C(O)[C@@H]1C[C@@H](O)CN1; Aad = N[C@@H](CCCC(=O)O)C(=O)O; NMeNle = CCCC[C@H](NC)C(=O)O; Pip = O=C(O)[C@@H]1CCCCN1; Orn = NCCC[C@H](N)C(=O)O; Dab = NCC[C@H](N)C(=O)O; Dap = NC[C@H](N)C(=O)O

T1 sequence (Q9NZQ7 with tags, fused parts or gaps): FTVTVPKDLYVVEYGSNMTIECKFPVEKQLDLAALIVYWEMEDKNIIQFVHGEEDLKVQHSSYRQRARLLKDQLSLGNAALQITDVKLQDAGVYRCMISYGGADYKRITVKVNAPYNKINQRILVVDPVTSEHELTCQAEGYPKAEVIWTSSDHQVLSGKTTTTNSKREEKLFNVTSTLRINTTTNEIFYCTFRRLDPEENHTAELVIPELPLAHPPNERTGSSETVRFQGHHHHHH

By IC50 is commonly meant the concentration that inhibits the measured activity by half. A high value points to lower potency. As for `CCCC[C@H]1C(=O)N(C)[C@@H](CCCC)C(=O)N[C@@H](CC(C)C)C(=O)NCCC[C@H](N)C(=O)N[C@@H](Cc2ccc(Cl)cc2)C(=O)N2CCCC[C@H]2C(=O)N[C@@H](CC(N)=O)C(=O)N2CCC[C@H]2C(=O)N[C@@H](CN)C(=O)N[C@@H](CC(C)C)C(=O)N2C[C@H](O)C[C@H]2C(=O)N[C@@H](Cc2c[nH]c3ccccc23)C(=O)N[C@@H](CCN)C(=O)N[C@@H](Cc2cn(CC(=O)O)c3ccccc23)C(=O)N1C` [Example 10545] (H-[Orn][Phe(4-Cl)][Pip]NP[Dap]L[Hyp]W[Dab][Trp(1-CH2COOH)][NMeNle][NMeNle]L; lactam 1-C), the IC50 (numeric values) stood at 8 nM.
For the compound `CCCC[C@H]1C(=O)N(C)[C@@H](CCCC)C(=O)N[C@@H](CC(C)C)C(=O)NCCC[C@H](N)C(=O)N[C@@H](Cc2ccc(Cl)cc2)C(=O)N2CCCC[C@H]2C(=O)N[C@@H](CC(N)=O)C(=O)N2CCC[C@H]2C(=O)N[C@@H](CN)C(=O)N[C@@H](CCC(=O)O)C(=O)N2C[C@H](O)C[C@H]2C(=O)N[C@@H](Cc2c[nH]c3ccccc23)C(=O)N[C@@H](CCN)C(=O)N[C@@H](Cc2cn(CC(=O)O)c3ccccc23)C(=O)N1C` [Example 10546] (H-[Orn][Phe(4-Cl)][Pip]NP[Dap]E[Hyp]W[Dab][Trp(1-CH2COOH)][NMeNle][NMeNle]L; lactam 1-C), the IC50 (range classes) was in the range of 10 to 99 nM.
The same measure, in the same setting: the same measure for `CCCC[C@H]1C(=O)N(C)[C@@H](CCCC)C(=O)N[C@@H](CC(C)C)C(=O)NCCC[C@H](N)C(=O)N[C@@H](Cc2ccc(C)cc2)C(=O)N2CCCC[C@H]2C(=O)N[C@@H](CC(N)=O)C(=O)N2CCC[C@H]2C(=O)N[C@@H](CN)C(=O)N[C@@H](CCC(=O)O)C(=O)N2C[C@H](O)C[C@H]2C(=O)N[C@@H](Cc2c[nH]c3ccccc23)C(=O)N[C@@H](CCN)C(=O)N[C@@H](Cc2cn(CC(=O)O)c3ccccc23)C(=O)N1C` [Example 10547] (H-[Orn][Phe(4-Me)][Pip]NP[Dap]E[Hyp]W[Dab][Trp(1-CH2COOH)][NMeNle][NMeNle]L; lactam 1-C): 10 to 99 nM; for `CCCC[C@H]1C(=O)N(C)[C@@H](CCCC)C(=O)N[C@@H](CC(C)C)C(=O)NCCC[C@H](N)C(=O)N[C@@H](Cc2ccc(F)cc2)C(=O)N2CCCC[C@H]2C(=O)N[C@@H](CC(N)=O)C(=O)N2CCC[C@H]2C(=O)N[C@@H](CN)C(=O)N[C@@H](CCC(=O)O)C(=O)N2C[C@H](O)C[C@H]2C(=O)N[C@@H](Cc2c[nH]c3ccccc23)C(=O)N[C@@H](CCN)C(=O)N[C@@H](Cc2cn(CC(=O)O)c3ccccc23)C(=O)N1C` [Example 10548] (H-[Orn][Phe(4-F)][Pip]NP[Dap]E[Hyp]W[Dab][Trp(1-CH2COOH)][NMeNle][NMeNle]L; lactam 1-C): 10 to 99 nM; for `CCCC[C@H]1C(=O)N(C)[C@@H](CCCC)C(=O)N[C@@H](CC(C)C)C(=O)NCCC[C@H](N)C(=O)N[C@@H](Cc2ccc(O)cc2)C(=O)N2CCCC[C@H]2C(=O)N[C@@H](CC(N)=O)C(=O)N2CCC[C@H]2C(=O)N[C@@H](CN)C(=O)N[C@@H](CCC(=O)O)C(=O)N2C[C@H](O)C[C@H]2C(=O)N[C@@H](Cc2c[nH]c3ccccc23)C(=O)N[C@@H](CCN)C(=O)N[C@@H](Cc2cn(CC(=O)O)c3ccccc23)C(=O)N1C` [Example 10549] (H-[Orn]Y[Pip]NP[Dap]E[Hyp]W[Dab][Trp(1-CH2COOH)][NMeNle][NMeNle]L; lactam 1-C): 10 to 99 nM.
As for `CCCC[C@H]1C(=O)N(C)[C@@H](CCCC)C(=O)N[C@@H](CC(C)C)C(=O)NCCC[C@H](N)C(=O)N[C@@H](Cc2ccc(F)cc2)C(=O)N2CCCC[C@H]2C(=O)N[C@@H](CC(N)=O)C(=O)N2CCC[C@H]2C(=O)N[C@@H](CN)C(=O)N[C@@H](CC(C)C)C(=O)N2C[C@H](O)C[C@H]2C(=O)N[C@@H](Cc2c[nH]c3ccccc23)C(=O)N[C@@H](CCN)C(=O)N[C@@H](Cc2cn(CC(=O)O)c3ccccc23)C(=O)N1C` [Example 10550] (H-[Orn][Phe(4-F)][Pip]NP[Dap]L[Hyp]W[Dab][Trp(1-CH2COOH)][NMeNle][NMeNle]L; lactam 1-C), the IC50 (range classes) was in the range of 10 to 99 nM.
For the setting “range classes”, `CCCC[C@H]1C(=O)N(C)[C@@H](CCCC)C(=O)N[C@@H](CC(C)C)C(=O)NCCC[C@H](N)C(=O)N[C@@H](Cc2ccc(OC)cc2)C(=O)N2CCCC[C@H]2C(=O)N[C@@H](CC(N)=O)C(=O)N2CCC[C@H]2C(=O)N[C@@H](CN)C(=O)N[C@@H](CCC(=O)O)C(=O)N2C[C@H](O)C[C@H]2C(=O)N[C@@H](Cc2c[nH]c3ccccc23)C(=O)N[C@@H](CCN)C(=O)N[C@@H](Cc2cn(CC(=O)O)c3ccccc23)C(=O)N1C` [Example 10551] (H-[Orn]Y(Me)[Pip]NP[Dap]E[Hyp]W[Dab][Trp(1-CH2COOH)][NMeNle][NMeNle]L; lactam 1-C) gave an IC50 of 1 to 9.9 nM.
Still for that read-out and setting: the value for `CCCC[C@H]1C(=O)N(C)[C@@H](CCCC)C(=O)N[C@@H](CC(C)C)C(=O)N[C@H](C(N)=O)CCCC(=O)N[C@@H](Cc2ccc(O)cc2)C(=O)N2CCCC[C@H]2C(=O)N[C@@H](CC(=O)O)C(=O)N2CCC[C@H]2C(=O)N[C@@H](CN)C(=O)N[C@@H](CC(C)C)C(=O)N2C[C@H](O)C[C@H]2C(=O)N[C@@H](Cc2c[nH]c3ccccc23)C(=O)N[C@@H](CCN)C(=O)N[C@@H](Cc2cn(CC(=O)O)c3ccccc23)C(=O)N1C` [Example 10552] (Y[Pip]DP[Dap]L[Hyp]W[Dab][Trp(1-CH2COOH)][NMeNle][NMeNle]L[Aad]-NH2; lactam N-14) was 1 to 9.9 nM.
Same read-out and setting: the value for `CCCC[C@H]1C(=O)N(C)[C@@H](CCCC)C(=O)N[C@@H](CC(C)C)C(=O)N[C@H](C(N)=O)CCCC(=O)N[C@@H](Cc2ccc(C)cc2)C(=O)N2CCCC[C@H]2C(=O)N[C@@H](CC(=O)O)C(=O)N2CCC[C@H]2C(=O)N[C@@H](CN)C(=O)N[C@@H](CC(C)C)C(=O)N2C[C@H](O)C[C@H]2C(=O)N[C@@H](Cc2c[nH]c3ccccc23)C(=O)N[C@@H](CCN)C(=O)N[C@@H](Cc2cn(CC(=O)O)c3ccccc23)C(=O)N1C` [Example 10553] ([Phe(4-Me)][Pip]DP[Dap]L[Hyp]W[Dab][Trp(1-CH2COOH)][NMeNle][NMeNle]L[Aad]-NH2; lactam N-14) was 10 to 99 nM.
On to `CCCC[C@H]1C(=O)N(C)[C@@H](CCCC)C(=O)N[C@@H](CC(C)C)C(=O)N[C@H](C(N)=O)CCCC(=O)N[C@@H](Cc2ccc(OC)cc2)C(=O)N2CCCC[C@H]2C(=O)N[C@@H](CC(=O)O)C(=O)N2CCC[C@H]2C(=O)N[C@@H](CN)C(=O)N[C@@H](CC(C)C)C(=O)N2C[C@H](O)C[C@H]2C(=O)N[C@@H](Cc2c[nH]c3ccccc23)C(=O)N[C@@H](CCN)C(=O)N[C@@H](Cc2cn(CC(=O)O)c3ccccc23)C(=O)N1C` [Example 10554] (Y(Me)[Pip]DP[Dap]L[Hyp]W[Dab][Trp(1-CH2COOH)][NMeNle][NMeNle]L[Aad]-NH2; lactam N-14), for which, under “range classes”, the IC50 was in the range of 1 to 9.9 nM.
The same measure, in the same setting: the same measure for `CCCC[C@H]1C(=O)N(C)[C@@H](CCCC)C(=O)N[C@@H](CC(C)C)C(=O)N[C@H](C(N)=O)CCCC(=O)N[C@@H](Cc2ccc(F)cc2)C(=O)N2CCCC[C@H]2C(=O)N[C@@H](CC(=O)O)C(=O)N2CCC[C@H]2C(=O)N[C@@H](CN)C(=O)N[C@@H](CC(C)C)C(=O)N2C[C@H](O)C[C@H]2C(=O)N[C@@H](Cc2c[nH]c3ccccc23)C(=O)N[C@@H](CCN)C(=O)N[C@@H](Cc2cn(CC(=O)O)c3ccccc23)C(=O)N1C` [Example 10555] ([Phe(4-F)][Pip]DP[Dap]L[Hyp]W[Dab][Trp(1-CH2COOH)][NMeNle][NMeNle]L[Aad]-NH2; lactam N-14): 10 to 99 nM.

Source of the values: patent US9732119B2, “Immunomodulators” (BRISTOL-MYERS SQUIBB COMPANY, priority 2014, dated 2017).
